From patent US7109240B2, “Non-hazardous pest control” (Ecosmart Technologies, Inc., priority 1993, dated 2006) come the findings set out here.

Assay [1] deals with German cockroaches. The assay can be described thus: Knockdown of cockroaches continuously confined to calcium carbonate + 5% neurally effective substance. It counts as in vivo, Blattella, germanica. Conditions: for insecticidal activity (in words): 5% (wt/wt) in calcium carbonate, or dust alone; for KT50 / KT90 / KT90, Hours: 5% (wt/wt) ingredient in calcium carbonate, or dust alone, 1.2 cc, 78 ± 4° F., 55 ± 6% rh. The method, then: (§1) Continuous exposure tests.—The intrinsic insecticidal activity of the insecticide dust against B. germanica was determined by exposing cockroaches to fresh and aged deposits of the dust. Replicated groups of three to ten adult cockroaches from culture were confined to deposits of the dust, and its speed of action in terms of knockdown (KD) and paralysis was determined. Adult male cockroaches from culture were placed directly onto fairly heavy deposits of dust (1 to 1.2 cc) spread evenly on filter paper in covered 9-cm-diameter petri dishes. The time for irreversible KD to occur (KT) was determined from periodic, irregular observation. The insects were considered KD when they were on their back, or could be turned over, and could not right themselves within at least two minutes. […] Comparison of KD activity was made with some commercial dust formulations including a non-fluorinated silica aerogel (SG-68), Drione™ (a fluorinated silica aerogel+pyrethrins), and a commercial diatomaceous earth (Celite™) applied and tested in the same manner.
(§2) The beads were screened out of the resultant mix. Exactly 1.2 cc of dust or dust was spread onto Whatman filter paper in 9-cm-diam petri dishes and the knockdown (KD) of cockroaches confined to the dust mix was determined by periodically observing KD.

Assay [2] concerns German cockroaches. Conditions: choice box; repellency measure. The method, then:
Choice box tests.—The activity and repellency of the present insecticide dust in a choice test was determined with standard two-compartment choice boxes.
Choice boxes are 30.5 cm square, 10 cm tall wooden boxes, with a tempered masonite floor. A vertical partition panel separates the box into two equal-sized compartments. A 1.3 cm hole at the top center of the partition panel allows cockroaches to move from one compartment to the other. Transparent sheet plexiglass (0.3 cm thick) taped to the top retains cockroaches in the box and allows observation of live and dead in each compartment. A piece of masonite keeps one compartment dark (dark compartment). […]
Five boxes were used for each treatment and the untreated control. […] Cockroaches prefer to aggregate in the dark, and they will normally readily move from the light compartment to the dark compartment of untreated choice boxes within a day or two. […] The number dead and alive in each compartment of each box was recorded every few days. […]
The mortality produced in choice boxes, and the position of cockroaches in relation to the treatment, provides a measure of the likely ultimate efficacy of a treatment when used under actual field conditions. […] On the other hand, slow-acting insecticides such as boric acid are effective in choice box tests because cockroaches readily walk on those deposits and are eventually killed by them.

The subject of assay [3] is German cockroaches. The assay can be described thus: Phenol vs. terpineol in calcium carbonate: knockdown of cockroaches. The format is in vivo, Blattella, germanica. As for the experimental part: as §2
A further test was conducted to compare the effectiveness of phenol vs. terpineol as a neurally effective substance.

In assay [4] the test system is adult male German cockroaches. The assay can be described thus: Control test: knockdown of cockroaches continuously confined to deposits of the solid dust components. The note with it: continuously confined to dust deposit; 76° F., 55% relative humidity. It counts as in vivo, Blattella, germanica. The method, then:
as §1
A control test was conducted using only the solid components of the embodiment.

Where [5] appears, read: 0.32 % (wt/wt) in calcium carbonate.
[6] abbreviates: 0.63 % (wt/wt) in calcium carbonate.
The mark [7] stands for this setting: 1.25 % (wt/wt) in calcium carbonate.
Where [8] appears, read: 2.5 % (wt/wt) in calcium carbonate.
[9] abbreviates: 5.0 % (wt/wt) in calcium carbonate.

Take `CCCCC/C(C=O)=C/c1ccccc1` [Amyl cinnamic aldehyde, 5%, Amyl cinnamic aldehyde]: in the assay on German cockroaches [1], the “insecticidal activity (in words)” value is given as “much slower, about as active as diatomaceous earth”; the “KT50” value is 9.4 h; the “KT90” value worked out at 15.5 h.
In the case of `CC(=O)OCc1ccccc1` [Benzyl acetate], in the assay with German cockroaches [1], the “insecticidal activity (in words)” value is given as “most active”, the “KT50” value turned out to be 0.7 h and the “KT90” value came to 1.0 h. Besides, the “KT90, Hours” value with German cockroaches [1] (listed as benzyl acetate) is “about one hour or so”.
In the case of `OB(O)O` [Boric acid, tech., Boric acid], in the assay with German cockroaches [2], the “% of live in light on day 1” value amounted to 13% and the “% of live in light on day 7” value is on record as 100%.
Turning to `O=C([O-])[O-].[Ca+2]` [Calcium carbonate (CaCO3), Calcium carbonate], in the assay with German cockroaches [1], the “insecticidal activity (in words)” value is “not insecticidal”. The “% KD at 24 h” value on German cockroaches [1] (dust alone) was “(1.3% KD at 24 h)”.
For `CCOC(=O)c1ccccc1C(=O)OCC` [Diethyl phthalate], in the assay on German cockroaches [1], the “insecticidal activity (in words)” value was “not insecticidal”.
Take `Oc1ccccc1` [Phenol]: the “KT-50” value is listed as 16.5 h in the assay on German cockroaches [3] (setting [5]); 7.5 h with German cockroaches [3] (setting [6]); 0.4 h in the assay with German cockroaches [3] (setting [7]); 0.2 h in the assay with German cockroaches [3] (setting [8]); less than 0.1 h with German cockroaches [3] (setting [9]). Besides, the “KT-90” value is given as 24.0 h in the assay with German cockroaches [3] (setting [5]); 20.3 h in the assay on German cockroaches [3] (setting [6]); 1.5 h in the assay on German cockroaches [3] (setting [7]); 0.4 h in the assay on German cockroaches [3] (setting [8]); 0.1 h with German cockroaches [3] (setting [9]). The “insecticidal activity (in words)” value with German cockroaches [3] (in CaCO3, every rate tested) is “more insecticidal than terpineol”.
Take `OCCc1ccccc1` [Phenyl ethyl alcohol]: in the assay on German cockroaches [1], the “insecticidal activity (in words)” value was “most active”, the “KT50” value was determined as 0.7 h and the “KT90” value was determined as 1.0 h. The “KT90, Hours” value with German cockroaches [1] (listed as phenyl ethyl alcohol) is given as “about one hour or so”.
`O=C([O-])O.[Na+]` [Sodium bicarbonate (NaHCO3), Sodium bicarbonate]: in the assay with German cockroaches [1], the “KT50” value amounted to 9.7 h and the “KT90” value is 16.0 h. Also, in assay [4], the “KT50” value was 16.5 h and the “KT90” value came out at 20.9 h.
